Molecular target: T1, TcEIF4E5 (Trypanosoma cruzi, UniProt A0A2V2VRR6)
T1 sequence (A0A2V2VRR6 1-200): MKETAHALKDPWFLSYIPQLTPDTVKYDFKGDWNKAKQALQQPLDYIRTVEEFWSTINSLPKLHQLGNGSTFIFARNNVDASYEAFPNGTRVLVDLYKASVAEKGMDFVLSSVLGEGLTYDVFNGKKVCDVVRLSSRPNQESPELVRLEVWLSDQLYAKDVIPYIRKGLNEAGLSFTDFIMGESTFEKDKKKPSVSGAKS
Assay: X-ray crystal structure
Assay type: binding

- Kd: 21 ± 7 µM
Compound: C[n+]1cn([C@@H]2O[C@H](COP(=O)(O)OP(=O)(O)OP(=O)(O)O)[C@@H](O)[C@H]2O)c2nc(N)[nH]c(=O)c21 [m7GTP]

From article PMC6582342 (Nucleic Acids Research, 2019)
